Biological target: T1, cytosolic NADP-ME2 (recombinant Arabidopsis NADP-malic enzyme 2) (Arabidopsis thaliana, UniProt Q9LYG3)
T1 construct: full-length cDNA (1785 bp PCR product) in pALEXb; E. coli
T1 sequence (Q9LYG3 1-588): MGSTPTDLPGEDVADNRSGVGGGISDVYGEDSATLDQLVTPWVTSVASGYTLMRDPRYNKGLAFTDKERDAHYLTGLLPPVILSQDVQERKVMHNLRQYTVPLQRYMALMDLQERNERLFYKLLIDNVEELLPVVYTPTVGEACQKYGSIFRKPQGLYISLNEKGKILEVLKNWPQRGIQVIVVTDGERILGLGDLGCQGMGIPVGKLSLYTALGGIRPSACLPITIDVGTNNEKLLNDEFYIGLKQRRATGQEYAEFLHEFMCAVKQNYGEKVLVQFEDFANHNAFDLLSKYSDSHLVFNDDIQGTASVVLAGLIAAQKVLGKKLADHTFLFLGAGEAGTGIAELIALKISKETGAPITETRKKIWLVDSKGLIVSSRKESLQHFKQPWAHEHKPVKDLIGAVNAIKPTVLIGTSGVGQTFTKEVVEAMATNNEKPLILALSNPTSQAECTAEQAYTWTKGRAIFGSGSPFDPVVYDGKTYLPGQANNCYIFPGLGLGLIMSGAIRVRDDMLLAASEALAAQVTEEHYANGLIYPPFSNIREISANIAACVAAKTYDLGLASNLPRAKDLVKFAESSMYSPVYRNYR
Test: spectrophotometric NADP reduction at […] nm after preincubation with peroxynitrite donor
Format: biochemical
Settings: covalent (Tyr-73 nitration); peroxynitrite generated in situ from donor SIN-1, so concentration is that of the donor; 37 °C, 1 h preincubation; assay pH 7.6, 25 °C, 2 mM MgCl2, 0.8 mM NADP, 1 mM L-mal

ONOO^−
% inhibition with 5 mM SIN-1 (donor): 56%
